The structures appear in SMILES notation.

As for `O=C1NC(=O)C(C2CC=CCC2)O1` (stereo not given), the melting point was 83 to 86 °C. In turn, `O=C=Nc1ccc(Cl)cc1[N+](=O)[O-]` came in with a melting point of 54 to 56 °C. The result for `CCCCCc1c(C(C)C)nc(C(C)C)c(CNC)c1-c1ccc(F)cc1` reads 77 to 79 °C; that for `Clc1ccc(C=C(OC2CCCCC2)n2cncn2)c(Cl)c1`, 84 °C. The value for `CCCNC(=O)C(CC)Cc1ccc2c(c1)c(Cc1ccc(C(=O)O)cc1OC)cn2CCC` (stereo not given) was 85 to 97 °C. `CC1CCCNC(=O)C1` (stereo not given): the melting point lay in the range of 87 to 100 °C.

For `N#CC(CCC1C2CCN1CC2)(c1ccccc1)c1ccccc1` (stereo not given), the melting point lay within 79 to 81 °C. The value for `COP(=O)(OC)C1CC(c2ccc([N+](=O)[O-])cc2)=NO1` (stereo not given) was 156 to 158 °C; that for `Cc1nc2cc(-c3ccc(C=C4SC(=O)NC4=O)cn3)cc(OCc3ccccc3)c2o1` was 245 °C; that for `CCC(=Cc1ccc(OCCCC(=O)O)c(Cl)c1Cl)[N+](=O)[O-]` was 155 to 156 °C. The value for `CN1CC=C(c2c[nH]c3ccc(NS(=O)(=O)c4cccc5ccccc45)cc23)CC1` was 244 to 245 °C; that for `O=c1[nH]c(=O)n([C@@H]2CO[C@@H](CO)O2)cc1/C=C/Br` was 75 to 78 °C; that for `Cc1nn(C)c(O)c1C(=O)c1ccc(Cl)c(C)c1Cl` was 149 to 150 °C. Turning to `COC(=O)c1ccc(O)cn1`, the melting point was in the range of 188 to 190 °C.

Turning to `CC(C)c1cccc(-c2ccc(F)cc2)c1O`, the melting point was in the range of 41 to 43 °C.

For `COc1ccc(C(=O)c2cc(-c3ccncc3)c(N3CCOCC3)s2)cc1`, the melting point worked out at 193 °C. The value for `COc1ccc(CNc2nc(CCC(=O)O)nc3sc(Cl)cc23)cc1Cl` was 126 °C; that for `Cc1cc2c(c(C)c1N)CCO2` was 85 to 86 °C. The result for `Cc1noc(C)c1C(=O)Nc1ccc(-n2nc(C3CC3)cc2C2CC2)cc1` reads 115 to 119 °C; that for `COc1ccc(C2(CCN3CCC(O)(c4nc5ccccc5n4Cc4ccc(F)cc4)CC3)CCN(C(=O)c3ccccc3)C2)cc1OC` (stereo not given), 111 to 114 °C. On to `COc1c(N2CCNC(C3CC3)C2)c(F)cc2c(=O)c(C(=O)O)cn([C@@H]3C[C@@H]3F)c12` (stereo not given in full), for which the melting point was in the range of 136 to 139 °C.

For `Cc1ccc(-c2c(N(C)C(=O)OC(C)(C)C)n(CC(C)C)c(=O)c3ccc(OCc4ccccc4)cc23)cc1`, the melting point came to 164 °C. `O=[N+]([O-])c1cnn(-c2ccc(Cl)nn2)c1` came in with a melting point of 169 to 172 °C. The result for `CCN1C(=O)CSC1=NOC(=O)N(C)SC(Cl)(Cl)Cl` reads 126 to 128 °C; that for `CC(C)(C)C(O)CN1CCC(CCC(=O)c2cc(Cl)c(N)[nH]c2=O)CC1` (stereo not given), 211 °C. The result for `COc1ccc(Oc2ncc(Br)cn2)cc1` reads 92 °C; that for `NCCOc1ccncc1`, 108 to 112 °C; that for `O=C(c1c(F)cccc1F)N1CS(=O)(=O)CN(c2ccc(Cl)cc2)C1=O`, 274 to 275 °C. As to `O=C1c2cccc3c2N(CC3)c2ccc(Br)cc2N1CC#CCN1CCCC1`, the melting point was 121 to 122 °C. The value for `Cc1cc(-c2nnc3c4ccccc4c(OCc4cscn4)nn23)no1` was 227 to 229 °C.

As for `CN(C)c1ccc(C=Nn2ccnc2CCc2ccccc2)cc1`, the melting point was 153 to 154 °C. The value for `Cc1cccc(C)c1NCCCC(=O)N(C(=O)c1ccc(Cl)cc1)[C@@H](Cc1ccccc1)C(=O)O` was 153 to 155 °C. Regarding `Cc1cc2c(cc1Oc1ccc(C(=O)O)cc1)C(C)(C)CCC2(C)C`, the melting point is 208 to 210 °C. Take `CC(=O)c1c([N+](=O)[O-])[nH]c(-c2ccncc2)c1C`: the melting point lay within 187 to 188 °C. The result for `CCOc1cc(C(=O)CCCC2CCCCC2)c(OCC)cc1C` reads 49 to 50 °C; that for `O=C(Nc1ccc(Br)c(Br)c1[N+](=O)[O-])C(F)(F)F`, 107 to 109 °C. Consider `CC(=O)N(C)Cc1cc2c(-c3ccccc3)c(CC(=O)Nc3ccc(Cl)cc3C(F)(F)F)c(=O)oc2cc1Cl`, for which the melting point lay within 199 to 201 °C.

As to `COC(=O)C(=Cc1cc(OC)cc(OC)c1)c1ccc(O)cc1`, the melting point was 106 to 108 °C. For the compound `CCCCc1nc2c(C(=O)O)cccc2n1Cc1ccc(C(=O)O)cc1`, the melting point came out at 250 °C. The result for `COC(=O)Cn1c(C)cc(Cc2ccsc2)c([N+](=O)[O-])c1=O` reads 157 to 158 °C. The value for `CCOC(=O)c1cc(=O)c2c(OCCOc3ccc(NC(C)=O)cc3)cccc2o1` was 220 to 222 °C. In the case of `CC(=O)N1C(=O)N(N=Cc2cccnc2)Cc2cc(C(F)(C(F)(F)F)C(F)(F)F)ccc21`, the melting point lay within 160 to 162 °C.

With `CC(C)C(=O)Nc1csc(Br)n1`, the melting point turned out to be 95 °C. The value for `COc1nc(OC)nc(OC(C(=O)O)C(C)(C)C)n1` (stereo not given) was 37 to 40 °C; that for `COC=C(C(=O)OC)c1csc2ccc(C=O)cc12` was 134 to 135 °C. The value for `CNc1nc(-c2ccc(SC)cc2)nc(SC)c1C(=O)Nc1ccc(C)cc1` was 228 to 230 °C; that for `CCCc1c(OCC(O)CSCCN(C)C)ccc(C(C)=O)c1O` (stereo not given) was 54 to 55 °C. The value for `CCOC(=O)C=Cc1c(C)nc(SCc2ccc(OC)cc2)n1C` was 165 to 167 °C; that for `Clc1ccc(-c2n[nH]cc2Cl)cc1` was 158 °C; that for `CCOc1nc(N2CCNCC2)nc2c1sc1nc(-c3ccc(C(O)CO)cc3)nc(C)c12` (stereo not given) was more than 300 °C. `O=C1c2ccc3c4cccc5cccc(c6ccc(c2c36)C(=O)N1C1CCCCCCCCCCC1)c54`: the melting point is 285 °C. The result for `O=C1c2cccnc2CCCC1Br` (stereo not given) reads 193 to 195 °C; that for `O=C(O)Cn1cc(Cc2nc3c(F)c(F)cc(F)c3s2)c2ccc(Cl)cc21`, 194 to 195 °C. The value for `CC(C)(C)c1cc(CCNCc2cccc(NC(=N)c3cccs3)c2)cc(C(C)(C)C)c1O` was 116 to 117 °C; that for `CC(=O)OC1C(N2CCCC2)CC2C3CCC4CC(O)C(N5CCOCC5)CC4(C)C3CCC21C` (stereo not given) was 149 to 153 °C; that for `O=C(Nc1cnccc1C(=O)O)OCc1cc2cc(-c3ccccc3)ccc2o1` was 236 to 239 °C.

As for `Cc1[nH]c(=O)n(-c2cc(C(=O)OC(C)C)c(Cl)cc2F)c(=O)c1Br`, the melting point lay in the range of 187 to 189 °C. For `C=C(C)COc1cc(C)c(NC(C)=O)c(C)c1C`, the melting point fell in the range of 149 to 150 °C. The value for `CCOC(=O)C(=O)Nc1cc(N2CCOCC2)ccc1OC` was 95 to 97 °C; that for `CCC1(O)C(C)=CC(=O)N1c1ccccc1` (stereo not given) was 97 to 100 °C; that for `Cc1cccc2c1OC(c1ccccc1)([N+](=O)[O-])C2` (stereo not given) was 122 to 126 °C. In the case of `C#CCCCNC(=O)C(c1ccccc1)c1ccccc1`, the melting point amounted to 90 °C. The result for `CN(C/C=C\COCC(=O)O)c1cnc(-c2ccccc2)c(-c2ccccc2)n1` reads 128 to 130 °C; that for `CNCc1nc(-c2ncn3c2CN(C)C(=O)c2c(Cl)cccc2-3)no1`, 192 to 193 °C; that for `CCOc1cc(Cc2cnc(N)nc2N)cc(OCC)c1C(O)CS(C)(=O)=O` (stereo not given), 205 to 206 °C.

Values taken from a melting point compilation (Tetko et al.; mined from patent text by program, amines drawn as free bases though some values may be those of a salt).
